The source of these data is US20250188075A1, “SUBSTITUTED HETEROCYCLIC CSNK1 INHIBITORS” (The Broad Institute, Inc., priority 2022, published 2025).

One experiment has as its target human CSNK1D (Homo sapiens (Human), UniProt P48730). The experiment can be described thus: CSNK1D assay (ADP-Glo, 1 μM ATP). Type of experiment: biochemical. Particulars: median, read-out: CSNK1D IC50 [mol/l] (median). The protocol:
CSNK1D-inhibitory activity of compounds of the present invention in presence of 1 μM adenosine-tri-phosphate (ATP) was quantified employing the CSNK1D assay as described in the following paragraphs. In essence, the enzyme activity is measured by quantification of the adenosine-di-phosphate (ADP), which is generated as a co-product of the enzyme reaction, via the “ADP-Glo™ Kinase Assay” kit from the company Promega. This detection system works as follows: In a first step the ATP not consumed in the kinase reaction is quantitatively converted to CAMP employing an adenylate cyclase (“ADP-Glo-reagent”), then the adenylate cyclase is stopped and the ADP generated in the kinase reaction converted to ATP which generates in a luciferase-based reaction a glow-luminescence signal (“Kinase Detection Reagent”).
Recombinant fusion protein of N-terminal Glutathion-S-Transferase (GST) and full-length human CSNK1D, expressed by baculovirus infected insect cells and purified via Glutathion affinity chromatography, was purchased from Life Technologies (product no. PV3665) and used as enzyme. As substrate for the kinase reaction the biotinylated peptide Btn-Ahx-SGSEGDSESGEEEG (C-terminus in amide form) was used which can be purchased e.g. from the company Biosyntan (Berlin-Buch, Germany).
For the assay 50 nl of a 100-fold concentrated solution of the test compound in DMSO was pipetted into a white 1536-well microtiter plate (Greiner Bio-One, Frickenhausen, Germany), 2 μL of a solution of CSNK1D in aqueous assay buffer [50 mM HEPES pH 7.5, 10% (v/v) glycerol, 10 mM MgCl2, 50 mM NaCl, 1 mM dithiothreitol, 0.01% (w/v) bovine serum albumin, 0.01% (v/v) Triton X-100] were added and the mixture was incubated for 15 min at 22° C. to allow pre-binding of the test compounds to the enzyme before the start of the kinase reaction. Then the kinase reaction was started by the addition of 3 μL of a solution of ATP (1.67 μM=>final conc. in the 5 μL assay volume is 1 μM) and peptide substrate (50 μM=>final conc. in the 5 μL assay volume is 30 μM) in assay buffer and the resulting mixture was incubated for a reaction time of 30 min at 22° C. The concentration of CSNK1D was adjusted depending of the activity of the enzyme lot and was chosen appropriate to have the assay in the linear range, a typical concentration is about 0.5 ng/μL. The reaction was stopped by the addition of 2.5 μL of “ADP-Glo-reagent” (1:1.5 fold diluted with water) and the resulting mixture was incubated at 22° C. for 1 h to convert the ATP not consumed in the kinase reaction completely to CAMP. Subsequently 2.5 μL of the “kinase detection reagent” (1.2 fold more concentrated than recommended by the producer) were added, the resulting mixture was incubated at 22° C. for 1 h and then the luminescence measured with a suitable measurement instrument (e.g. Viewlux™ from Perkin-Elmer). The amount of emitted light was taken as a measure for the amount of ADP generated and thereby for the activity of the CSNK1D.
The data were normalised (enzyme reaction without inhibitor=0% inhibition, all other assay components but no enzyme=100% inhibition).
Background: ADP-Glo first removes unused ATP, then detects ADP through luciferase.

The subject of a further experiment is HT-29 cells. In words: HT29 cell proliferation assay, CTG method. The conditions noted are these: HT-29, CTG, 96 h, median, read-out: 2D-PROLI HT-29 CTG 96 h, IC50 - [mol/l] (median). It counts as cell-based. The protocol:
CELL PROLIFERATION ASSAY CTG METHOD, 384-well version: Day 1: plated 400 cells/30 μL/well in growth medium (DMEM/Ham's F12; (Biochrom; #FG 4815, mit stabilem Glutamin)+FCS (final: 10%); (Biochrom; #S 0415)) in 384-well black plates (Corning #3571). Plated sister wells in a separate plate for time zero determination. Incubated all plates overnight at 37° C. Day 2: added test compounds in serial dilutions using the HP D300 Digital Dispenser and incubated at 37° C. for 96 h. Measured time zero plate: add 30 μL/well CTG solution (Promega CellTiter-Glo solution (catalog #G7573)) to wells in time zero plate; incubated for 2 minutes in a orbital shaker to induce cell lysis; allowed the plate to incubate at room temperature for additional 10 min to stabilize luminescent signal and read luminescence on PheraStar (rapid mode—0.02 sec/well; GAIN 3000). Day 6: Added 30 μL/well CTG solution to all test wells, incubated for 2 minutes in a orbital shaker to induce cell lysis; allowed the plate to incubate at room temperature for additional 10 min to stabilize luminescent signal and read luminescence on PheraStar (rapid mode—0.02 sec/well; GAIN 3000 Proliferation IC50s were calculated using the DRC application in ShiNy Analysis Platform-SNAP.”

For a further experiment, the system named is HCT 116 cells. In words: HCT 116 cell proliferation assay, CTG. Type of experiment: cell-based. The conditions noted are these: HCT 116, CTG, 96 h, median, read-out: 2D-PROLI HCT 116 CTG 96 h, IC50 - [mol/l] (median). The protocol: 400 HCT 116 cells/30 μL/well were plated in growth medium (DMEM/Ham's F12, 10% FCS) in a 384-well plate (CORNING #3571) at day 1. Reference plate was seeded for time zero determination. All plates were incubated overnight 37° C. Day 2: test compound was added in 7-step dilution and incubate at 37° C. for 96 h. Day 2: time zero plate: 30 μL/well CTG solution (Promega Cell Titer Glo solution; catalog #G755B and G756B) were added, incubated for 30 minutes, read luminescence on PheraStar. Day 6: compound treated plates: 30 μL/well CTG solution (Promega Cell Titer Glo solution; catalog #G755B and G756B) were added, incubated for 30 minutes, luminescence was read on PheraStar. Proliferation was calculated after subtracting time zero luminescence values from day 6 values and comparing to untreated wells. The IC50 values were determined using the four parameter fit.

Where two headings read alike, the source gives them in different places.

Chain of human CSNK1D (P48730 whole entry): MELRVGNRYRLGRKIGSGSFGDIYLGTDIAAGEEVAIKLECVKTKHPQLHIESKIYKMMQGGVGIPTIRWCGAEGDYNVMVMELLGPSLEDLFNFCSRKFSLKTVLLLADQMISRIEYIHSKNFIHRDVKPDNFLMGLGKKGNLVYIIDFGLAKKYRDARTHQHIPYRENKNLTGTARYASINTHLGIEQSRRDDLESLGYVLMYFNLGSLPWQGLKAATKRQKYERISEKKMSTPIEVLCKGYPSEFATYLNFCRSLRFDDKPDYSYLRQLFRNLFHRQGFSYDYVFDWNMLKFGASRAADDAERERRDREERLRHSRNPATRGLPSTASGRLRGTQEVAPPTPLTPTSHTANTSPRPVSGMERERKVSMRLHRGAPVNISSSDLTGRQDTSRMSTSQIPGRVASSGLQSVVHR

Consider `Cn1nc(CC(=O)Nc2cc(-c3[nH]c4cccnc4c3-c3ccccn3)ccn2)cc1C(F)(F)F` [Example 21, 2-[1-methyl-5-(trifluoromethyl)pyrazol-3-yl]-N-[4-[3-(2-pyridyl)-^1H-pyrrolo[3,2-b]pyridin-2-yl]-2-pyridyl]acetamide], for which the values for the IC50 on human CSNK1D, in the experiment on HT-29 cells (Homo sapiens) and with HCT 116 cells (Homo sapiens) were 4.88 nM, 222 nM and 362 nM, respectively.
Consider `O=C(Cc1ccns1)Nc1cc(-c2[nH]c3cccnc3c2-c2ccccn2)ccn1` [Example 22, 2-isothiazol-5-yl-N-[4-[3-(2-pyridyl)-^1H-pyrrolo[3,2-b]pyridin-2-yl]-2-pyridyl]acetamide], for which the results for the IC50 at human CSNK1D, in the experiment with HT-29 cells (Homo sapiens) and in the experiment on HCT 116 cells (Homo sapiens) were 4.84 nM, 337 nM and 357 nM, respectively.
The matching figures for `O=C(Cc1ccno1)Nc1cc(-c2[nH]c3cccnc3c2-c2ccccn2)ccn1` [Example 23, 2-isoxazol-5-yl-N-[4-[3-(2-pyridyl)-^1H-pyrrolo[3,2-b]pyridin-2-yl]-2-pyridyl]acetamide]: 4.68 nM, 768 nM and 553 nM.
For the compound `Cc1ncc(CC(=O)Nc2cc(-c3[nH]c4cccnc4c3-c3ccccn3)ccn2)o1` [Example 24, 2-(2-methyloxazol-5-yl)-N-[4-[3-(2-pyridyl)-^1H-pyrrolo[3,2-b]pyridin-2-yl]-2-pyridyl]acetamide], the IC50 was 5.37 nM at human CSNK1D, 481 nM in the experiment on HT-29 cells (Homo sapiens) and 418 nM with HCT 116 cells (Homo sapiens).
The matching figures for `Cc1nc(CC(=O)Nc2cc(-c3[nH]c4cccnc4c3-c3ccccn3)ccn2)co1` [Example 25, 2-(2-methyloxazol-4-yl)-N-[4-[3-(2-pyridyl)-^1H-pyrrolo[3,2-b]pyridin-2-yl]-2-pyridyl]acetamide]: 8.44 nM, 630 nM and 985 nM.
For `Cc1cc(CC(=O)Nc2cc(-c3[nH]c4cccnc4c3-c3ccccn3)ccn2)no1` [Example 26, 2-(5-methylisoxazol-3-yl)-N-[4-[3-(2-pyridyl)-^1H-pyrrolo[3,2-b]pyridin-2-yl]-2-pyridyl]acetamide] the same measures were 6.64 nM, 466 nM and 496 nM.
The matching figures for `O=C(Cc1cc(C2CC2)on1)Nc1cc(-c2[nH]c3cccnc3c2-c2ccccn2)ccn1` [Example 27, 2-(5-cyclopropylisoxazol-3-yl)-N-[4-[3-(2-pyridyl)-^1H-pyrrolo[3,2-b]pyridin-2-yl]-2-pyridyl]acetamide]: 6.38 nM, 338 nM and 489 nM.
For the compound `CC(C)n1ccc(CC(=O)Nc2cc(-c3[nH]c4cccnc4c3-c3ccccn3)ccn2)n1` [Example 28, 2-(1-isopropylpyrazol-3-yl)-N-[4-[3-(2-pyridyl)-^1H-pyrrolo[3,2-b]pyridin-2-yl]-2-pyridyl]acetamide], the figures for the IC50 at human CSNK1D, in the experiment on HT-29 cells (Homo sapiens) and in the experiment with HCT 116 cells (Homo sapiens) were 6.3 nM, 314 nM and 586 nM, respectively.
For `Cn1nc(CC(=O)Nc2cc(-c3[nH]c4cccnc4c3-c3ccccn3)ccn2)cc1C1CC1` [Example 29, 2-(5-cyclopropyl-1-methyl-pyrazol-3-yl)-N-[4-[3-(2-pyridyl)-^1H-pyrrolo[3,2-b]pyridin-2-yl]-2-pyridyl]acetamide] the same measures were 6.48 nM, 340 nM and 518 nM.
For `Cc1nocc1CC(=O)Nc1cc(-c2[nH]c3cccnc3c2-c2ccccn2)ccn1` [Example 30, 2-(3-methylisoxazol-4-yl)-N-[4-[3-(2-pyridyl)-^1H-pyrrolo[3,2-b]pyridin-2-yl]-2-pyridyl]acetamide] the same measures were 6.69 nM, 1650 nM and 1140 nM.
As to `O=C(Nc1cc(-c2[nH]c3nccnc3c2-c2ccccn2)ccn1)[C@@H](CC(F)F)c1ccc(F)cc1` [Example C1, reference compound], the IC50 on human CSNK1D amounted to 3.92 nM; in the experiment with HT-29 cells, 206 nM; with HCT 116 cells, 429 nM.
The matching figures for `O=C(Nc1cc(-c2[nH]c3ccc(F)nc3c2-c2ccccn2)ccn1)[C@@H](CC(F)F)c1ccc(F)cc1` [Example C2, reference compound]: 2.26 nM, 88.8 nM and 184 nM.
In the case of `O=C(Nc1cc(-c2[nH]c3c(OCC(F)F)ncnc3c2-c2ccccn2)ccn1)[C@@H](CC(F)F)c1ccc(F)cc1` [Example C3, reference compound], the IC50 at human CSNK1D turned out to be 3.27 nM; in the experiment on HT-29 cells, 110 nM; in the experiment on HCT 116 cells, 735 nM.
